These results are taken from patent US20250161309A1, “TOPICAL COMPOSITIONS AND USES THEROF” (TOPADUR PHARMA AG, priority 2022, published 2025).

For data set [1], the system named is battery of 44 targets (SafetyScreen44). The data set is described as follows: Off-target selectivity, (radio)ligand binding and enzymatic assays, SafetyScreen44 (Eurofins Cerep). Details: species or system human. The following applies: 100 nM; all 44 targets of Table 4 (incl. hERG, PDE3A, PDE4D2, COX1, COX2); no significant responses. As for the experimental part: In vitro pharmacological profiling is increasingly being used earlier in the drug discovery process to identify undesirable off-target activity profiles that could hinder or halt the development of candidate drugs or even lead to market withdrawal if discovered after a drug is approved (Bowes N, et. al., Nature Reviews Drug Discovery 11(12):909-22). Thus, the Off-target selectivity of Compound 1 at 100 nM was tested in (radio)ligand binding and enzymatic assays against a battery of 44 targets (SafetyScreen44™, atEurofins Cerep, France).

Data set [2] deals with C57BL/6 mouse model for chemotherapy-induced alopecia (CIA). The data set is described as follows: Preventive C57BL/6 mouse model of cyclophosphamide (chemotherapy)-induced alopecia (CIA), topical administration. Type of data set: in vivo. The following applies: female mice; for mice with visual melanogenesis in peeled skin: end of study; for Ki-67 mean score (positive cells near the root sheath of hair follicles, semi-quantitative grading): vehicle 0.4; for CD-31 mean score (perifollicular angiogenesis, semi-quantitative grading): vehicle group 0.8. On the procedure: Female C57BL/6 mice (Vivo Bio Tech Ltd, Telangana, India) of 6 to 9 weeks of age in stable telogen phase of hair growth cycle were used.
100 μL of a clear solution of respective 0.0004%, 0.002% (w/v) concentrations of Cpd 1 in the corresponding vehicle (PEG-400:EtOH/7:3) (PEG-400: Central Drug House Ltd. Dehli, India; Ethanol: Changshu Hongsheng fine chemicals Co. Ltd. China) and the positive control, 2% solution (w/v) Minoxidil (Chemieliva, China) in the corresponding vehicle (PEG-400:EtOH/7:3) were topically applied to the depilated area on the dorsal back of female mice. The solutions covered a circular area of approximately 4 cm^2. The treatment regimen was twice daily for 7 days before Cyclophosphamide injection and afterwards for 3 weeks.
Animals (female) on day 1 weighted on average 18.8 g+0.2 ranging from 18.5 to 19.3 g. The animals were exposed by gentle clipping of hair from the dorsal back using an electric clipper. The following day, animals with clear skin were depilated using a depilatory cream. To evaluate the preventive potential of Cpd 1 in the chemotherapy-induced alopecia mouse model, animals were treated topically with 0.0004% and 0.002% Cpd 1, 2% Minoxidil and vehicle from day 1 onwards on the dorsal depilated skin with twice daily application regimen until day 10, when all the animals have attained the anagen stage. On day 11 after depilation, no application of the Cpd 1 or vehicle was done. This was considered a wash-out period. On day 12 after depilation, the animals were given intraperitoneal injection of cyclophosphamide (CYP-HiMedia Laboratories, Mumbai, India) at the dose of 150 mg/kg body weight. One day of wash-out period was given to the animals before restarting the treatment with Cpd 1. The treatment regimen was reinitiated with 0.0004% and 0.002% Cpd 1, 2% Minoxidil and vehicle in the respective groups for further 3 weeks. All the animals were observed from day 1 (experiment start) till day 30 (experiment termination and animal sacrifice day) and the hair growth score was recorded on a daily basis. The criteria for scoring of hair growth is as follows: no hair growth, pink skin—score 0; skin colour changes from pink to grey/light grey without visible hair growth—score 0.5; onset of anagen (skin colour changes from grey/light grey to dark grey/black without visible hair growth)—score 1; sparse hair growth—score 1.5; diffuse short hair growth—score 2, moderate hair growth—score 2.5 and dense, normal coat hair—score 3 (Lee B H, Lee J S, Kim Y C. Hair growth-promoting effects of lavender oil in C57BL/6 mice. Toxicol Res. (2016) 32(2):103-108). Photographs of the animals were captured before the initiation and during the course of the study. […]
After completion of the experiments all animals were sacrificed by euthanasia (Choi H I, Kang B M, Jang J, Hwang S T, Kwon O. Novel effect of sildenafil on hair growth. Biochem Biophys Res Commun. (2018) 505(3):685-691). The dorsal skin of each animal was then removed by peeling. The peeled skin was spread and checked visually for the induction of melanogenesis indicated by visual blackening on the reverse side of the skin. The skin samples were evenly spread on a pre-labelled glass slide and kept in 10% formalin until further use. Later, the skin samples were embedded in paraffin and sectioned at 5 microns using a microtome and the corresponding slides per animal were prepared. The slides obtained were used for Haematoxylin & Eosin (H&E) staining and in the transverse and longitudinal sections' photomicrographs data, the total number of follicles in the dermis and the sub cutis were determined for each animal. The skin thickness was measured using Image J 1.44 software. […]

With `CCCOc1ccc(S(=O)(=O)N2CCC(CCO[N+](=O)[O-])(CCO[N+](=O)[O-])CC2)cc1-c1nc2c(CCC)cn(CC)c2c(=O)[nH]1` [Cpd 1, (1-((3-(5-ethyl-4-oxo-7-propyl-4,5-dihydro-3H-pyrrolo[3,2-d]pyrimidin-2-yl)-4-propoxyphenyl)sulfonyl)piperidine-4,4-diyl)bis(ethane-2,1-diyl) dinitrate], the “inhibition or stimulation to any of the targets” value in data set [1] is recorded as under 50%. Moreover, the “number of hair follicles, Cpd 1 compared with 2% Minoxidil-treated groups” value in data set [2] is “No significant differences”. For the same molecule, in data set [2] (0.0004% (w/v)), the “signs of alopecia after CYP administration on day 12” value is listed as “minor signs of alopecia”; the “mice with visual melanogenesis in peeled skin” value is 6/7; the “Ki-67 mean score (positive cells near the root sheath of hair follicles, semi-quantitative grading)” value was determined as 1.4; the “CD-31 mean score (perifollicular angiogenesis, semi-quantitative grading)” value is recorded as 1.4. Also, in data set [2] (0.0004% and 0.002%), the “depth and development of dermal papilla and long hair shaft of hair follicles observed (longitudinal skin sections)” value was “majority of the animals”; the “thickness of the skin compared to vehicle group” value is “slightly increase”. Further, the “skin color change (transition from telogen to anagen phase) compared to Minoxidil-treated group” value in data set [2] (0.0004% and 0.002%, before CYP administration, majority of animals, end of first week of application) is “faster”. Further, in data set [2] (0.002% (w/v)), the “increase in hair growth, 0.002% compared to 0.0004%” value is “slightly faster increase”; the “signs of alopecia after CYP administration on day 12” value is listed as “no signs of alopecia”; the “mice with visual melanogenesis in peeled skin” value is 7/7; the “Ki-67 mean score (positive cells near the root sheath of hair follicles, semi-quantitative grading)” value came to 1.7. For the same molecule, the “CD-31 mean score (perifollicular angiogenesis, semi-quantitative grading)” value in data set [2] (0.002% (w/v)) came out at 1.6. The “adverse effects on body weight” value in data set [2] (30-day study, any of the groups) is “no adverse effects”. In addition, in data set [2] (30-day study, topical twice daily), the “behavioral changes, reaction to treatment or adverse effects in relation to general health” value is on record as “no signs of behavioral changes, reaction to treatment or adverse effects”. In data set [2] (Compound 1 treated groups), the “decrease in the mean hair growth after CYP administration” value is on record as “no decrease”; the “number of hair follicles in the subcutis layer of the skin and total follicle counts compared to vehicle group (H&E)” value is “significantly increased”. For the same molecule, the “animals with complete hair regrowth (hair growth score of 3)” value in data set [2] (Cpd 1 groups (0.0004% and 0.002%)) is on record as 7/7. In addition, in data set [2] (from day 6/7 onwards), the “increase in hair growth compared to Minoxidil and vehicle group” value is on record as “faster increase”.
